From article PMC4792136, “A generic screening platform for inhibitors of virus induced cell fusion using cellular electrical impedance” (Scientific Reports, 2016)

Assays:
[1] = system: RSV; assay: RSV CEI fusion assay, live virus, 96-well; format: cell-based, respiratory syncytial virus; conditions: for IC50: human respiratory syncytial virus, read-out: RSV CEI 96 IC50
Excerpt: (§1) Impedance assays were setup in parallel to microscopy based fluorescent protein cytoplasmic mixing and cell content mixing T7 driven fusion assays. For testing small molecule inhibitors see cell content mixing, T7 driven reporter fusion assay protocol for cell infection, transfection and plating method. All other steps were as listed below.
(§2) Cos7-G cells were transfected with the RSV F expression vector (pCICO-Fopt) in 6 well plates using lipofectamine LTX as per manufacturer’s instructions (Invitrogen) or infected with RSV (MOI of 2). Four hours post infection/transfection, cells were trypsinized and re-suspended to 8 × 10^5 cells/ml. E-Plates were pre-blanked and Cos7-G and Cos7-R cells were seeded together at a 1:1 ratio for a final cell density of 5 × 10^4 cells/well. Plates were placed into the SP station, incubated at 37 °C in 5% CO2 and impedance was recorded every 15 min over 72 h.
(§3) The protocol is an adaptation of that described by Bagai and Lamb[29]. Cos7 cells were transfected with a plasmid containing Renilla luciferase under T7 promoter control (pGL80-T7RL) and an RSV F expression vector. For live virus fusion assay, transfection media was removed after 2 h and replaced with SF media containing RSV (MOI of 2). Two h post infection (4 h post initial transfection) cells were trypsinized and re-suspended to 8 × 10^5 cells/ml. Compounds were serially diluted in SF Opti-MEM media and added to opaque bottom, white microtitre plates (Corning) at 50 μl/well along with 25 μl of both Cos7 and BsrT7 cells added to each well to obtain a final concentration of 5 × 10^4 cells/well. After 24 h, media was exchanged with 50 μl/well Opti-MEM media supplemented with 2% FBS and 8 ng/ml Enduren Live Cell Substrate (Promega). After 6 h at 37 °C in a humidified incubator supplemented with 5% CO2, the plates were read using a Lucy 2 luminometer with 1 sec integration time. Assays were performed in triplicate.

[2] = target: T1, RSV F protein (Human respiratory syncytial virus A, UniProt P03420); assay: Cell content mixing T7 luciferase fusion assay, recombinant F, 96-well; format: cell-based
T1 construct: expressed in transfected cells; host or cells: Cos7 cells (transiently transfected), co-plated with BsrT7 cells
T1 sequence (P03420 137-574): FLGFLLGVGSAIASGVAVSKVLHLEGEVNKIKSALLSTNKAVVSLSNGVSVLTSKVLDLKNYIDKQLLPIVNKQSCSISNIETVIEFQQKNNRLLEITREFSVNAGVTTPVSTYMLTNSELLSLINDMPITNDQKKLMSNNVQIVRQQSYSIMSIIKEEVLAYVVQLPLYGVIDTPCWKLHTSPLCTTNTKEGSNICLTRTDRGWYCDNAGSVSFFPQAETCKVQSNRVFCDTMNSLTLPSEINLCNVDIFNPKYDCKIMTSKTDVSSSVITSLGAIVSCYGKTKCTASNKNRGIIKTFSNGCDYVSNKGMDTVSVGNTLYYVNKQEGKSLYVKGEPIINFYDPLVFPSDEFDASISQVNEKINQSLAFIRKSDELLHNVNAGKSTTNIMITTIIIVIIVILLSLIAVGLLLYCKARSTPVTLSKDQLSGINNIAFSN
T1 sequence (P03420 26-109): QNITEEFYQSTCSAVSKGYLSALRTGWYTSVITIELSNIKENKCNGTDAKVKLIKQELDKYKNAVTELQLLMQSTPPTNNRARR
Experimental: as §3

[3] = target: T1, RSV F protein; assay: recombinant F CEI fusion assay, 384-well; format: cell-based
Excerpt: as §1, §2
(§4) 384-well fusion assays were setup as per 96-well protocol with the following changes: Cos7 and BsrT7 cells were seeded at a final concentration of 1 × 10^4 cells/well. Compound titration was performed in a Biomek NX Laboratory Automation Workstation and added to a final volume of 25 μl/well. Luciferase activity was determined using an EnVision Multilabel reader (PerkinElmer).

[4] = target: T1, RSV F protein; assay: Cell content mixing T7 luciferase fusion assay, recombinant F, 384-well; format: cell-based
Experimental: as §3, §4

[5] = system: RSV; design: method as in earlier work; conditions: HEp-2 cells, MOI 0.2, 48 h, MTT; CPE data supplied by Biota Pharmaceuticals ref 35; cited from earlier work
[6] = system: RSV; assay: Plaque-reduction neutralization (PRNT) assay, RSV; format: cell-based; conditions: human respiratory syncytial virus; RSV on vero cells; in Table S1 printed as ± followed by a range
[7] = target: T1, RSV F protein; assay: recombinant F CEI fusion assay, 96-well; format: cell-based; conditions: cells transfected with noncoding empty vector (eV)
Excerpt: as §1, §2
The protocol is an adaptation of that described by Bagai and Lamb[29]. Cos7 cells were transfected with a plasmid containing Renilla luciferase under T7 promoter control (pGL80-T7RL) and an RSV F expression vector. For live virus fusion assay, transfection media was removed after 2 h and replaced with SF media containing RSV (MOI of 2). […] After 6 h at 37 °C in a humidified incubator supplemented with 5% CO2, the plates were read using a Lucy 2 luminometer with 1 sec integration time. […]

| SMILES | IC50 [1] [nM] | IC50 [2] [nM] | IC50 [3] [nM] | IC50 [4] [nM] | CPE EC50 [5] [log10 M] | IC50 [6] [nM] | change in cell impedance of control cells ([1]; control (uninfected) cells) | effect on cell impedance of control cells [7] |
| --- | --- | --- | --- | --- | --- | --- | --- | --- |
| O=C(c1ccc(F)cc1)N1CCN2C(=O)c3ccncc3C12c1ccc(Cl)cc1 (centres unmarked) [BTA-1] | 398 | 3980 | 6310 | 158000 | -6.5 |  |  |  |
| O=C(c1ccoc1)N1CCN2C(=O)c3ccncc3[C@]12c1ccc(Cl)cc1 [BTA-2] | 20 | 158 | 251 | 2510 | -7.9 |  |  |  |
| O=C(c1ccc(F)cc1)N1CCN2C(=O)c3cc[n+]([O-])cc3C12c1ccc(Cl)cc1 (centres unmarked) [BTA-3] | 200 | 2510 | 1000 | 31600 | -6.8 |  |  |  |
| O=C(c1ccoc1)N1CCN2C(=O)c3cc[n+]([O-])cc3[C@]12c1ccc(Cl)cc1 [BTA-4] | 39.8 | 1000 | 2510 | 7940 | -7.6 |  |  |  |
| Cc1ocnc1C(=O)N1CCN2C(=O)c3ccncc3[C@@]21c1ccc(Cl)cc1 [BTA-5] | 501 | 12600 | 2510 | 79400 | -6.6 |  |  |  |
| Cc1ocnc1C(=O)N1CCN2C(=O)c3ccncc3C21C1CCOCC1 (centres unmarked) [BTA-6] | 5.01 | 39.8 | 200 | 1000 | -8.5 |  |  |  |
| O=C1c2ccncc2[C@@]2(c3ccc(Cl)cc3)N1CCN2C(=O)C1CC1 [BTA-7] | 794 | 39800 | 12600 |  | -5.8 |  |  |  |
| Cc1ccc(CCCO)c(NCc2ccc3nc(NCCCN4CCOCC4)n(Cc4nc(C)ccc4O)c3c2)c1 [TMC-353121] | 0.794 |  |  |  |  | 5.8 | No change in cell impedance | No effect on cell impedance |
